Laboratory results published in publication PMC5936891, “A focused library synthesis and cytotoxicity of quinones derived from the natural product bolinaquinone” (Royal Society Open Science, 2018).

Key:
U87 (glioblastoma) = test: MTT in vitro growth inhibition assay, U87; type: cell-based; conditions: for inhibition at 25 µM: 25 µM of drug, 72 h, read-out: Percentage of Cell Growth Inhibition U87; for GI50: 72 h drug exposure
Excerpt: (§1) With the desired bolinaquinone analogues 12–43 in hand, we examined their cytotoxicity against a panel of 11 tumour cell lines: HT29 (colon carcinoma), U87 and SJ-G2 (glioblastoma), MCF-7 (breast carcinoma), A2780 (ovarian carcinoma), H460 (lung carcinoma), A431 (skin carcinoma), Du145 (prostate carcinoma), BE2-C (neuroblastoma), MIA (pancreatic carcinoma), SMA (spontaneous murine astrocytoma) and a normal breast cell line (MCF10A). The inclusion of the MCF-10A cell line allowed a determination of a crude measure of relative toxicity while noting that the ultimate arbiter of toxicity requires in vivo evaluation. All analogues were initially screened at a 25 µM drug concentration.
(§2) Stock solutions were prepared as follows and stored at −20°C: drugs were stored as 40 mM solutions in DMSO. All cell lines were cultured in a humidified atmosphere 5% CO2 at 37°C. The cancer cell lines were maintained in Dulbecco's modified Eagle's medium (DMEM) (Trace Biosciences, Australia) supplemented with 10% fetal bovine serum, 10 mM sodium bicarbonate, penicillin (100 IU ml^−1), streptomycin (100 µg ml^−1) and glutamine (4 mM). The non-cancer MCF10A cell line was cultured in DMEM:F12 (1 : 1) cell culture media, 5% heat-inactivated horse serum, supplemented with penicillin (50 IU ml^−1), streptomycin (50 µg ml^−1), 20 mM Hepes, L-glutamine (2 mM), epidermal growth factor (20 ng ml^−1), hydrocortisone (500 ng ml^−1), cholera toxin (100 ng ml^−1) and insulin (10 ug ml^−1).
(§3) Cells in logarithmic growth were transferred to 96-well plates. Cytotoxicity was determined by plating cells in duplicate in 100 µl medium at a density of 2500–4000 cells per well. On day 0 (24 h after plating), when the cells were in logarithmic growth, 100 μl of medium with or without the test agent was added to each well. After 72 h, drug exposure growth inhibitory effects were evaluated using the MTT (3-[4,5-dimethylthiazol-2-yl]-2,5-diphenyl-tetrazolium bromide) assay and the absorbance read at 540 nm. Percentage growth inhibition was determined at a fixed drug concentration of 25 µM. A value of 100% is indicative of complete cell growth inhibition. Those analogues showing appreciable percentage growth inhibition underwent further dose–response analysis allowing for the calculation of a GI50 value. This value is the drug concentration at which cell growth is 50% inhibited based on the difference between the optical density values on day 0 and those at the end of drug exposure.

[1] = test system: Du145 (prostate carcinoma); test: MTT in vitro growth inhibition assay, Du145; type: cell-based; conditions: Homo sapiens; for inhibition at 25 µM: DU-145, 25 µM of drug, 72 h, read-out: Percentage of Cell Growth Inhibition Du145; for GI50: DU-145, 72 h, 72 h drug exposure
Excerpt: as §1, §2, §3

H460 (lung carcinoma) = test: MTT in vitro growth inhibition assay, H460; type: cell-based; conditions: Homo sapiens; for inhibition at 25 µM: NCI-H460, 25 µM of drug, 72 h, read-out: Percentage of Cell Growth Inhibition H460; for GI50: NCI-H460, 72 h drug exposure
Excerpt: as §1, §2, §3

[2] = test system: MCF10A (normal breast cell line); test: MTT in vitro growth inhibition assay, MCF10A; type: cell-based; conditions: Homo sapiens, MCF-10A; for inhibition at 25 µM: 25 µM of drug, 72 h, read-out: Percentage of Cell Growth Inhibition MCF10A; for GI50: normal breast cell line, 72 h drug exposure
Excerpt: as §1, §2, §3

MCF-7 (breast carcinoma) = test: MTT in vitro growth inhibition assay, MCF-7; type: cell-based; conditions: Homo sapiens; for inhibition at 25 µM: MCF7, 25 µM of drug, 72 h, read-out: Percentage of Cell Growth Inhibition MCF-7; for GI50: MCF7, 72 h drug exposure
Excerpt: as §1, §2, §3

[3] = test system: SMA (spontaneous murine astrocytoma); test: MTT in vitro growth inhibition assay, SMA; type: cell-based; conditions: Mus musculus; for inhibition at 25 µM: 25 µM of drug, 72 h, read-out: Percentage of Cell Growth Inhibition SMA; for GI50: 72 h drug exposure
Excerpt: as §1, §2, §3

SJ-G2 (glioblastoma) = test: MTT in vitro growth inhibition assay, SJ-G2; type: cell-based; conditions: for inhibition at 25 µM: 25 µM of drug, 72 h, read-out: Percentage of Cell Growth Inhibition SJ-G2; for GI50: 72 h drug exposure
Excerpt: as §1, §2, §3

A431 (skin carcinoma) = test: MTT in vitro growth inhibition assay, A431; type: cell-based; conditions: Homo sapiens; for inhibition at 25 µM: A-431, 25 µM of drug, 72 h, read-out: Percentage of Cell Growth Inhibition A431; for GI50: A-431, 72 h, 72 h drug exposure
Excerpt: as §1, §2, §3

[4] = test system: MIA (pancreatic carcinoma); test: MTT in vitro growth inhibition assay, MIA; type: cell-based; conditions: for inhibition at 25 µM: 25 µM of drug, 72 h, read-out: Percentage of Cell Growth Inhibition MIA; for GI50: 72 h drug exposure
Excerpt: as §1, §2, §3

HT29 (colon carcinoma) = test: MTT in vitro growth inhibition assay, HT29; type: cell-based; conditions: Homo sapiens; for inhibition at 25 µM: HT-29, 25 µM of drug, 72 h, read-out: Percentage of Cell Growth Inhibition HT29; for GI50: HT-29, 72 h drug exposure
Excerpt: as §1, §2, §3

[5] = test system: A2780 (ovarian carcinoma); test: MTT in vitro growth inhibition assay, A2780; type: cell-based; conditions: Homo sapiens; for inhibition at 25 µM: 25 µM of drug, 72 h, read-out: Percentage of Cell Growth Inhibition A2780; for GI50: 72 h drug exposure
Excerpt: as §1, §2, §3

BE2-C (neuroblastoma) = test: MTT in vitro growth inhibition assay, BE2-C; type: cell-based; conditions: Homo sapiens, BE(2)-C, 72 h; for inhibition at 25 µM: 25 µM of drug, read-out: Percentage of Cell Growth Inhibition BE2-C; for GI50: 72 h drug exposure
Excerpt: as §1, §2, §3

SMILES	inhibition at 25 µM (U87 (glioblastoma))	inhibition at 25 µM [1]	inhibition at 25 µM (H460 (lung carcinoma))	inhibition at 25 µM [2]	GI50 [2]	inhibition at 25 µM (MCF-7 (breast carcinoma))	GI50 (MCF-7 (breast carcinoma))	melting point	inhibition at 25 µM [3]	GI50 [3]	inhibition at 25 µM (SJ-G2 (glioblastoma))	GI50 (SJ-G2 (glioblastoma))	inhibition at 25 µM (A431 (skin carcinoma))	inhibition at 25 µM [4]	inhibition at 25 µM (HT29 (colon carcinoma))	inhibition at 25 µM [5]	GI50 [5]	inhibition at 25 µM (BE2-C (neuroblastoma))	GI50 (BE2-C (neuroblastoma))	GI50 (U87 (glioblastoma))	also measured
COC1=CC(=O)C(OC)=C(c2ccccc2-c2ccccc2)C1=O [compound 29, 3-Biphenyl-2-yl-2,5-dimethoxycyclohexa-2,5-diene-1,4-dione]	14 ± 4%	10 ± 2%	10 ± 4%	21 ± 8%	36 ± 3.8 µM	27 ± 5%	28 ± 2.6 µM	186 to 188 °C	72 ± 9%	20 ± 1.7 µM	38 ± 9%	31 ± 0.58 µM	14 ± 3%	< 10%	15 ± 1%	77 ± 5%	17 ± 1.2 µM	> 100%	11 µM	–	–
COC1=C(c2ccccc2)C(=O)C(OC)=C(c2ccccc2)C1=O [compound 30, 2,5-Dimethoxy-3,6-diphenylcyclohexa-2,5-diene-1,4-dione]	52 ± 5%	35 ± 5%	26 ± 8%	> 100%	8.9 ± 1.6 µM	> 100%	7 ± 0.98 µM	150 to 152 °C	> 100%	6.2 ± 0.3 µM	> 100%	12 ± 0.9 µM	59 ± 6%	63 ± 5%	73 ± 4%	> 100%	5.9 µM	> 100%	7 ± 0.1 µM	30 ± 1.8 µM	GI50 [1]: > 50 µM; GI50 (H460 (lung carcinoma)): > 50 µM; GI50 (A431 (skin carcinoma)): > 50 µM; GI50 [4]: 20 ± 2 µM; GI50 (HT29 (colon carcinoma)): 16 ± 1.2 µM
CCCCc1ccc(C2=C(OC)C(=O)C(c3ccc(CCCC)cc3)=C(OC)C2=O)cc1 [compound 31, 2,5-Bis(4-butylphenyl)-3,6-dimethoxycyclohexa-2,5-diene-1,4-dione]	53 ± 3%	83 ± 2%	52 ± 9%	66 ± 2%	–	73 ± 5%	–	177 to 179 °C	54 ± 4%	–	56 ± 6%	–	75 ± 2%	72 ± 2%	73 ± 3%	55 ± 9%	–	68 ± 3%	–	–	–
COC1=C(c2ccccc2)C(=O)C(OC)=C(c2cccc3ccccc23)C1=O [compound 32, 2,5-Dimethoxy-3-(naphthalen-1-yl)-6-phenylcyclohexa-2,5-diene-1,4-dione]	19 ± 2%	18 ± 4%	20 ± 8%	58 ± 15%	–	22 ± 2%	–	168 to 170 °C	58 ± 13%	–	19 ± 3%	–	17 ± 2%	13 ± 1%	15 ± 4%	60 ± 17%	–	27 ± 15%	–	–	–
COC1=C(c2ccc3ccccc3c2)C(=O)C(OC)=C(c2cccc3ccccc23)C1=O [compound 33, 2,5-Dimethoxy-3-(naphthalene-1-yl)-6-(naphthalene-3-yl)cyclohexa-2,5-diene-2,5-diene-1,4-dione]	43 ± 11%	40 ± 1%	45 ± 2%	86 ± 3%	13 ± 2.2 µM	> 100%	5.6 ± 0.7 µM	163 to 165 °C	81 ± 10%	11 ± 0.33 µM	92 ± 5%	14 ± 1.9 µM	57 ± 3%	72 ± 2%	53 ± 2%	98 ± 0.5%	6.9 ± 1.2 µM	81 ± 1%	12 ± 0.9 µM	26 ± 2.1 µM	GI50 [1]: 31 µM; GI50 (H460 (lung carcinoma)): 28 ± 2.7 µM; GI50 (A431 (skin carcinoma)): 23 ± 3.4 µM; GI50 [4]: 15 ± 0.9 µM; GI50 (HT29 (colon carcinoma)): 23 ± 1.2 µM
COC1=C(c2ccc3ccccc3c2)C(=O)C(OC)=C(c2ccc(OC)cc2OC)C1=O [compound 34, 2,5-Dimethoxy-3-(2,4-dimethoxyphenyl)-6-(naphthalene-3-yl)cyclohexa-2,5-diene-1,4-dione]	61 ± 4%	41 ± 3%	49 ± 9%	99 ± 2%	12 ± 2.4 µM	> 100%	6.2 ± 0.31 µM	159 to 161 °C	98 ± 1%	9.7 ± 0.6 µM	83 ± 2%	16 µM	85 ± 2%	70 ± 1%	82 ± 2%	100 ± 1%	6.1 ± 0.03 µM	> 100%	9.6 ± 0.5 µM	22 ± 2 µM	GI50 [1]: 27 ± 2.5 µM; GI50 (H460 (lung carcinoma)): 35 ± 6.9 µM; GI50 (A431 (skin carcinoma)): 15 ± 1 µM; GI50 [4]: 18 ± 0.33 µM; GI50 (HT29 (colon carcinoma)): 10.2 ± 0.3 µM
